The values below come from US20230374038A1, “MODULATORS OF CYSTIC FIBROSIS TRANSMEMBRANE CONDUCTANCE REGULATOR” (VERTEX PHARMACEUTICALS INCORPORATED, priority 2020, published 2023).

For one series, the target named is CFTR (Homo sapiens, UniProt P13569). Kind of series: Membrane Potential Dye, Enteroid Assay B. Format: cell-based. The method in brief:
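Membrane-potential fluorescence read over 15 min after chloride-free stimulation (forskolin 10 μM, IBMX 100 μM, Compound III 300 nM), with CaCCinh-A01 and Chicago Sky Blue present. Enteroids had 18-24 h compound exposure at 37 °C; activity given as % of the triple-combination corrector/potentiator reference response.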

The conditions of series [1]: from Cc1cccc(C)c1-c1nc(NS(=O)(=O)c2cccc(C(=O)O)c2)nc(OC[C@@H](CCC(C)(C)O)NC2CC3(CC3)C2)c1C; amide bond; 13-membered ring; T3P/TEA; DMF/EtOAc; 51.6 mM; 17.0 h.

A word on the EC50: it is the concentration needed to bring the measured effect to its halfway point.

Sequence of CFTR (P13569 with tags, fused parts or gaps DEL508-508): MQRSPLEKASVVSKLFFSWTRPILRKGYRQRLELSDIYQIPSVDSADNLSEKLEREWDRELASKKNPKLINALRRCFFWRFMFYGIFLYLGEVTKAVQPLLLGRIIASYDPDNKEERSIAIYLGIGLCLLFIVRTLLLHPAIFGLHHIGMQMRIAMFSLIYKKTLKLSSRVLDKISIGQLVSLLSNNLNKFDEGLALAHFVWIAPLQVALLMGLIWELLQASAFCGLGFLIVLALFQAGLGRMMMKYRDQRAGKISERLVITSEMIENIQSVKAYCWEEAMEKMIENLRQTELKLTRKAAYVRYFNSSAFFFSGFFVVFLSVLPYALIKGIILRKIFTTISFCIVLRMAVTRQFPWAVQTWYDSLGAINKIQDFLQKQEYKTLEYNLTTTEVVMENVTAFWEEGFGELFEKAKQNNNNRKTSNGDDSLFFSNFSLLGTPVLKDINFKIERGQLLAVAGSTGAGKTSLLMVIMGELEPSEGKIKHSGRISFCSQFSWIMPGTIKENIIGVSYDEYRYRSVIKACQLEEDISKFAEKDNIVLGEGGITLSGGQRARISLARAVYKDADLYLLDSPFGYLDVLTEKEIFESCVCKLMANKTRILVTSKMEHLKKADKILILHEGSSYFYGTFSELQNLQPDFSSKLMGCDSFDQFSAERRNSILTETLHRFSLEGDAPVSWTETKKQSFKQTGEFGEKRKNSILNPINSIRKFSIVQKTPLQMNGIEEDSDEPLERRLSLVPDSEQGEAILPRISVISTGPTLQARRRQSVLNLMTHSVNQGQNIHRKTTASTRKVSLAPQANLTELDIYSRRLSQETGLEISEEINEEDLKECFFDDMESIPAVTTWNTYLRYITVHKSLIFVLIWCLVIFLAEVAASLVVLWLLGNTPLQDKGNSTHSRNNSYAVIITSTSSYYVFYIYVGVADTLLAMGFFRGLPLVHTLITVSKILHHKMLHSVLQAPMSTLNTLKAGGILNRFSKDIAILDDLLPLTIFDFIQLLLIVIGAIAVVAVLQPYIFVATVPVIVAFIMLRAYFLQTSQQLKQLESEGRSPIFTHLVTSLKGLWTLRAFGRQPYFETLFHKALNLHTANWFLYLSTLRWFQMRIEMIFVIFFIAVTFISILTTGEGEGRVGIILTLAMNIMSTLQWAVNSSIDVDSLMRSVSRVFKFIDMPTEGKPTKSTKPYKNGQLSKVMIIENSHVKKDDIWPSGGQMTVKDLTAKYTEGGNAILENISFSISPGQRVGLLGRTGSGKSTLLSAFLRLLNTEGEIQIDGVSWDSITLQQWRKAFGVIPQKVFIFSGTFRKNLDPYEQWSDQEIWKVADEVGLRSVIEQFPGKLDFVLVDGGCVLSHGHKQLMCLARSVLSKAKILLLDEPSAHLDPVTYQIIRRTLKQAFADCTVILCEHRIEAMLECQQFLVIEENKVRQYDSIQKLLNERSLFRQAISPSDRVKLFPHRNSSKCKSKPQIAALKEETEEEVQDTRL

Turning to `Cc1cccc(C)c1-c1nc2nc(c1C)OC[C@@H](CCC(C)(C)O)N(C1CC3(CC3)C1)C(=O)c1cccc(c1)S(=O)(=O)N2` [Compound 106, (11R)-6-(2,6-dimethylphenyl)-11-(3-hydroxy-3-methyl-butyl)-7-methyl-2,2-dioxo-12-spiro[2.3]hexan-5-yl-9-oxa-2λ^6-thia-3,5,12,19-tetrazatricyclo[12.3.1.14,8]nonadeca-1(18),4(19),5,7,14,16-hexaen-13-one], the “Ent. B Max Activity” value at CFTR is “++ (++ is 30-60%)”. On CFTR (read-out: Ent. B EC50), the EC50 is 1000 to 3000 nM. The compound further came in with a ring closure, isolated yield in series [1] of 31%.
